In PubChem BioAssay (NCI) one finds GI50 and TGI data, which are given here for 9 compounds.

Test systems include K-562 leukemia; SF-295 CNS; NCI-H460 lung; OVCAR-3 ovarian; HL-60(TB) leukemia; OVCAR-8 ovarian; NCI-H522 lung; MCF7 breast; A498 renal; LOX IMVI melanoma.
What all share (test): NCI anticancer screen, dose series, 48 h

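Where inhibition never reached the appropriate level, the endpoint shown equals the highest concentration tested. Otherwise, values were interpolated linearly from a five-concentration, 48-hour dose response in 96-well plates. GI50: concentration for 50% inhibition of growth. TGI denotes the concentration required for complete inhibition of growth.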

For `Cn1cc(C2=C(c3c4n(c5ccccc35)CCCCC4)C(=O)NC2=O)c2ccccc21`, the GI50 with K-562 leukemia was 1.38 µM; in the assay on SF-295 CNS it was 1.31 µM; in the assay on NCI-H460 lung, 6.51 µM; in the assay with OVCAR-3 ovarian, 1.21 µM; in the assay with HL-60(TB) leukemia, 1.39 µM; in the assay on OVCAR-8 ovarian it was 10.7 µM. For the same compound, the GI50 in the assay on NCI-H522 lung was 1.02 µM; in the assay on MCF7 breast it was 1.36 µM; in the assay on A498 renal, 1.05 µM; in the assay with LOX IMVI melanoma, 9.4 µM. In addition, the TGI in the assay on K-562 leukemia was over 25 µM; in the assay on SF-295 CNS it was over 14.7 µM; in the assay on NCI-H460 lung, over 25 µM; with OVCAR-3 ovarian, 8.05 µM; in the assay on HL-60(TB) leukemia, 16.2 µM; in the assay with OVCAR-8 ovarian it was over 25 µM. In addition, the TGI is 8.14 µM in the assay with NCI-H522 lung, over 25 µM in the assay with MCF7 breast, 19.4 µM in the assay with A498 renal and over 25 µM in the assay with LOX IMVI melanoma.

On to `NS(=O)(=O)OC[C@@H]1C[C@@H](n2ccc3c(NC4CCc5ccccc54)ncnc32)C[C@@H]1O` (stereo partly specified), for which the GI50 with K-562 leukemia was 0.405 µM; with SF-295 CNS it was 0.337 µM; in the assay with NCI-H460 lung it was 0.341 µM; with OVCAR-3 ovarian it was 2.93 µM; with HL-60(TB) leukemia, 0.214 µM; in the assay on OVCAR-8 ovarian, 0.823 µM. Besides, the GI50 in the assay on NCI-H522 lung is 3.31 µM; with MCF7 breast, 0.0386 µM; in the assay with A498 renal it was 0.123 µM; in the assay on LOX IMVI melanoma, 0.0673 µM. Besides, the TGI in the assay on K-562 leukemia was 32.3 µM; in the assay on SF-295 CNS, 4.52 µM; in the assay on NCI-H460 lung, 23.9 µM; with OVCAR-3 ovarian it was 33.7 µM; in the assay on HL-60(TB) leukemia it was 14 µM; in the assay with OVCAR-8 ovarian it was 36.7 µM. For the same compound, the TGI was 27.3 µM in the assay on NCI-H522 lung, over 100 µM in the assay with MCF7 breast, 2.27 µM in the assay with A498 renal and 0.436 µM with LOX IMVI melanoma.

For `O=[N+]([O-])c1ccc2c(c1)/C(=N/N=C1c3ccccc3Cc3ccccc31)c1cc([N+](=O)[O-])cc([N+](=O)[O-])c1-2`, the TGI with K-562 leukemia is 9.41 µM; in the assay with SF-295 CNS, 3.7 µM; in the assay on NCI-H460 lung it was 14.1 µM; in the assay with OVCAR-3 ovarian, 3.11 µM; in the assay on HL-60(TB) leukemia, over 22.8 µM; with OVCAR-8 ovarian, 3.24 µM. The TGI is 3.25 µM in the assay on NCI-H522 lung, 3.64 µM with MCF7 breast, 18.2 µM in the assay on A498 renal and 4.6 µM in the assay on LOX IMVI melanoma.

Consider `Cc1ccc([N+](=O)[O-])cc1NC1=NCCO1`, for which the TGI with K-562 leukemia, with SF-295 CNS, in the assay with NCI-H460 lung, in the assay with OVCAR-3 ovarian, in the assay on HL-60(TB) leukemia and in the assay with OVCAR-8 ovarian was over 100 µM in each case. Also, the TGI with NCI-H522 lung, with MCF7 breast, with A498 renal and with LOX IMVI melanoma was over 100 µM each time.

With `CN1CCN(C2=NCCO2)CC1`, the TGI in the assay with K-562 leukemia, with SF-295 CNS, with NCI-H460 lung, with OVCAR-3 ovarian, in the assay with HL-60(TB) leukemia and in the assay on OVCAR-8 ovarian was over 100 µM throughout. Also, the TGI with NCI-H522 lung, in the assay on MCF7 breast, with A498 renal and in the assay with LOX IMVI melanoma was over 100 µM each time.

On to `OC1CSSC1Cn1cnc2c(Nc3ccc(OCc4cccc(F)c4)c(Cl)c3)ncnc21` (stereo unspecified), for which the GI50 was 0.604 µM with K-562 leukemia; 3.79 µM in the assay on SF-295 CNS; 0.171 µM in the assay with NCI-H460 lung; 0.748 µM with OVCAR-3 ovarian; 3.47 µM in the assay on HL-60(TB) leukemia; 3.71 µM in the assay on OVCAR-8 ovarian. Besides, the GI50 is 1.12 µM with NCI-H522 lung, 0.509 µM in the assay on MCF7 breast, 6.17 µM in the assay with A498 renal and 0.121 µM in the assay on LOX IMVI melanoma. The TGI with K-562 leukemia worked out at 1.5 µM; in the assay with SF-295 CNS, 10.4 µM; with NCI-H460 lung it was 0.667 µM; in the assay with OVCAR-3 ovarian it was 1.93 µM; in the assay with HL-60(TB) leukemia it was 20.8 µM; with OVCAR-8 ovarian it was 12 µM. The TGI was 4.15 µM with NCI-H522 lung, 1.29 µM with MCF7 breast, 12.4 µM with A498 renal and 0.499 µM in the assay on LOX IMVI melanoma.

`Cc1cc(-c2nc(C(=O)Nc3cc4oc(N5CCOCC5)nc4nc3N3CC[C@@H](O)C3)co2)ccn1`: the GI50 was 41.2 µM with K-562 leukemia; 87.5 µM in the assay with SF-295 CNS; 44 µM in the assay on NCI-H460 lung; 27 µM in the assay with OVCAR-3 ovarian; 35.2 µM with HL-60(TB) leukemia; 38.7 µM with OVCAR-8 ovarian. Further, the GI50 in the assay on NCI-H522 lung is 20 µM; in the assay on MCF7 breast, 84.1 µM; with A498 renal, 1.34 µM; in the assay with LOX IMVI melanoma it was 39.9 µM. For the same compound, the TGI in the assay with K-562 leukemia, in the assay on SF-295 CNS, in the assay with NCI-H460 lung, in the assay with OVCAR-3 ovarian, in the assay on HL-60(TB) leukemia and in the assay with OVCAR-8 ovarian was over 100 µM each time. The TGI with NCI-H522 lung is over 100 µM; with MCF7 breast it was over 100 µM; in the assay with A498 renal, 39.2 µM; in the assay on LOX IMVI melanoma it was over 100 µM.

In the case of `C=CCOc1ccc2c(C)cc(=O)oc2c1C`, the TGI in the assay with K-562 leukemia was over 100 µM; with SF-295 CNS, 58.5 µM; with NCI-H460 lung, over 100 µM; in the assay with OVCAR-3 ovarian, over 100 µM; in the assay with HL-60(TB) leukemia it was over 100 µM; with OVCAR-8 ovarian, over 100 µM. In addition, the TGI with NCI-H522 lung was 81.4 µM; in the assay on MCF7 breast, over 100 µM; with A498 renal it was over 100 µM; in the assay on LOX IMVI melanoma, over 100 µM.

With `NC(N)=NS(=O)(=O)c1ccc(Nc2c3ccccc3nc3c(C(=O)NCCO)cccc23)cc1`, the GI50 in the assay with K-562 leukemia was 35.1 µM; in the assay with SF-295 CNS, 20.5 µM; in the assay with NCI-H460 lung it was 9.16 µM; in the assay with OVCAR-3 ovarian, 17.1 µM; in the assay with HL-60(TB) leukemia it was 16.9 µM; with OVCAR-8 ovarian, 29.8 µM. Further, the GI50 in the assay on NCI-H522 lung is 16.6 µM; in the assay with MCF7 breast, 13.5 µM; in the assay on A498 renal it was 13.6 µM; with LOX IMVI melanoma, 28 µM. The same compound returned a TGI in the assay on SF-295 CNS of 60.7 µM.
